Assay results from US11191811B2, “Osteocalcin as a treatment for frailty associated with aging” (THE TRUSTEES OF COLUMBIA UNIVERSITY IN THE CITY OF NEW YORK, priority 2014, dated 2021).

Legend:
Gprc6a−/− myotubes = experiment: Gene expression (qPCR) in myotubes treated with Ocn; type: cell-based, mouse
Experimental: Serum osteocalcin, PINP, CTX, and insulin levels were measured using ELISA assays. Blood glucose level was measured using an Accu-Check glucometer. Urine 3-MHT was measured as previously described (Aranibar et al., 2011, Anal. Biochem. 410:84-91). Determination of cAMP accumulation was performed using a commercial kit (R&D). For gene expression, 1 μg of total RNA was reverse transcribed into cDNA. qPCR analyses were performed using a SYBER green master mix (Applied Biosciences) and a CFX-Connect real time PCR (Bio-Rad). Relative expression levels of each gene were normalized to that of Hprt or Gapdh. For in situ hybridization, muscle was frozen in liquid N2-cooled methylbutane. Samples were sectioned at 10 μm using a cryostat. In situ hybridization was performed with a DIG-labeled riboprobe as previously described (Oury et al., 2011, Cell 144:796-809).
Culture of skeletal muscle myoblasts from 7 day-old mice was performed as described (Gharaibeh et al., 2008, Nature Protocols 3:1501-1509). Myoblasts were differentiated into myotubes for 3-4 days in a medium containing 5% horse serum. Muscle fibers were isolated from flexor digitorum brevis muscle. Muscles were dissected with DMEM 2% collagenase for 2 hours at 37° C., in a 5% CO2 incubator. Muscle fibers were disaggregated from the tissue using a wide bore pipet and plated in matrigel-coated plates at approximately 50% confluence. […]

[1] = Circulating osteocalcin and insulin levels after osteocalcin delivery (ELISA); type: in vivo, mouse
Experimental: First, whether a single intraperitoneal injection of uncarboxylated mouse osteocalcin (osteocalcin) (100 ng/g of body weight) immediately before exercise would improve the exercise capacity of 3 month-old WT mice was tested.
To determine if osteocalcin has the same ability in older mice, 12 and 15 month-old mice that have low circulating osteocalcin levels were injected prior to running with 500 ng/g of body weight of osteocalcin in order to raise their circulating levels substantially. […] This was due to an increase in the phosphorylation of Akt, AMPK and HSL, as well as in glucose uptake, that occurred to a greater extent in oxidative muscles that express Gprc6a at the highest level, than in glycolytic muscles (FIG. 31C-F). Whether chronic delivery of osteocalcin through mini-pumps (90 ng/hour) for 28 days would increase muscle function in 9 month old mice that have the lowest circulating osteocalcin levels was also tested. […] This improved ability to perform exercise was caused in part by an increase in the expression in muscle of the fatty acid transporter Fatp1 and an activation of the Akt pathway (FIG. 31H-).
Serum osteocalcin, PINP, CTX, and insulin levels were measured using ELISA assays. Blood glucose level was measured using an Accu-Check glucometer. Urine 3-MHT was measured as previously described (Aranibar et al., 2011, Anal. Biochem. 410:84-91). […]

wild type mice [2] = experiment: Glucose tolerance test after subcutaneous infusion; type: in vivo, mouse; details: 0.3 or 3 ng/hour subcutaneously for 14 days, 120 minutes following glucose injection
Experimental: FIG. 2. Osteocalcin subcutaneous infusion increases glucose tolerance in wild-type mice. Wild-type mice were infused subcutaneously with indicated doses of recombinant osteocalcin or PBS for 14 days before receiving a single injection of glucose. Blood glucose was measured thereafter at indicated times.
For glucose tolerance test (GTT), glucose (2 g/kg body weight (BW)) was injected intraperitoneally (IP) after an overnight fast and blood glucose was monitored using blood glucose strips and the Accu-Check glucometer (Roche) at indicated times.
In another in vivo experiment, the effect of uncarboxylated osteocalcin on glucose tolerance was investigated. Wild type mice were infused subcutaneously with either 0.3 or 3 ng/hour doses of recombinant uncarboxylated osteocalcin or PBS for 14 days before receiving a single injection of glucose. Blood glucose was measured thereafter at the indicated times.

WT mice = experiment: D/LT and EPMT in adult WT mice with ICV infusion; type: in vivo, mouse
Experimental: FIG. 14. Osteocalcin improves cognitive function in adult wild-type (WT) mice. Results from dark and light (DLT) and elevated plus maze tests (EPMT) performed in 3-month old WT mice infused ICV with vehicle (PBS) or recombinant uncarboxylated osteocalcin (Ocn) (3, 10, 30 ng/hour) are shown. (A) DLT measuring the latency to enter, the number of entries, and the time spend in lit compartment. (B) EPMT measuring the number of entries into open arms and the time spend in […].
Each mouse was allowed to explore the apparatus for 5 min. Global activity was assessed by measuring the number of entries […] (David et al, 2009, Neuron 62:479-493). Anxiety was assessed by comparing the time spent in the open arms.
The test was performed in a quiet, darkened room. Mice were individually housed in cages containing a handful of bedding from their home cage and acclimated to the room at least 1 h before the test. Naïve mice were placed individually in the testing chamber in the dark compartment. The test was 5 min in duration, and time spent and number of entries in light compartments were recorded a highly trained observer, blind to the genotype of the mice.
To determine if osteocalcin is sufficient to improve cognitive function in adult mice, WT 2-month old mice were implanted with ICV pumps delivering vehicle (PBS), or 3, 10, or 30 ng/hr recombinant uncarboxylated full-length mouse osteocalcin for a period of one month. After one month of infusion, animals were subjected to behavioral testing. […] This improvement is evidenced by an increase in the exploration of the lit compartment and open arms in the D/LT and EMP tests, respectively (FIG. 14A-B).

wild type mice [3] = experiment: Body weight and gonadal fat pad mass during subcutaneous infusion; type: in vivo, mouse
Experimental: FIG. 4. Osteocalcin subcutaneous infusion decreases fat mass in wild-type mice. (A) Indicated doses of recombinant osteocalcin or PBS were infused subcutaneously for 28 days in wild-type mice. Body weight was recorded at indicated days. (B) Gonadal fat pad mass was measured after 28 days.
In another in vivo experiment, the effect of uncarboxylated osteocalcin on body weight and fat pad mass was monitored (FIG. 4). Wild type mice were infused subcutaneously for 28 days with PBS or uncarboxylated osteocalcin at 0.3, 1 or 3 ng/hour. […] Gonadal fat pad mass, measured after 28 days, decreased by about %18 with 3 ng/hour uncarboxylated osteocalcin treatment.

[4] = 3 or 10 ng/hour ICV for one month

## uncarboxylated osteocalcin: Recombinant uncarboxylated mouse osteocalcin, bacterially produced, purified on glutathione beads and cleaved from the GST subunit by thrombin (YLGASVPSPDPLEPTREQCELNPACDELSDQYGLKTAYKRIYGITI)
Gprc6a−/− myotubes
  expression of Il6: not
[1]; 3 month-old WT mice, single i.p. injection 100 ng/g
  circulating osteocalcin levels: increased
[1]; mini-pumps 90 ng/hour for 28 days, 9 month old mice
  circulating osteocalcin levels: increased
Wild type mice [2]
  glucose tolerance: increased
Wild type mice [2]; listed as Osteocalcin
  glucose tolerance: increases
WT mice; [4]
  exploration of the lit compartment (D/LT): increase
  exploration of the open arms (EPMT): increase
WT mice; 3 or 10 ng/hour ICV for one month, WT 2-month old mice
  anxiety-like behavior: decrease
WT mice; adult WT mice, ICV 3, 10, 30 ng/hour (FIG. 14 title)
  cognitive function: improves
Wild type mice [3]; 3 ng/hour, after 28 days
  decrease of gonadal fat pad mass: ~18%
Wild type mice [3]; 0.3, 1 or 3 ng/hour subcutaneously for 28 days, highest dose most effective
  body weight: slightly reduced
Wild type mice [3]; subcutaneous infusion 28 days (FIG. 4 title)
  fat mass: decreases
Wild type mice [3]; the other doses (0.3, 1 ng/hour), 28 days
  gonadal fat pad mass: did not significantly decrease
